PubChem BioAssay AID2060485 (Molecular Pharmacology Branch, DTP, NCI, 2025)

System: A375 multi-cell spheroids with HUVEC/MSC, viability
Assay: Anticancer human tumor A375 cell line growth inhibition [GQUAD];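 further: spheroids exposed to compounds for seven days before readout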
Conditions: for IC50: curve of first compound; for viability, T/C: stronger effect = lower value
In short: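 Multi-cell-type spheroids of tumor cells with HUVEC and mesenchymal stem cells, treated with drug combinations. Concentrations descend in half-log steps from near clinical Cmax, or from 10 microM where Cmax is unknown; viability read-out.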

[1] = second compound 0.0316 µM, first compound 0.0316 µM
[2] = second compound 0.0316 µM, first compound 0.1 µM
[3] = second compound 0.0316 µM, first compound 0.316 µM
[4] = second compound 0.0316 µM, first compound 1 µM
[5] = second compound 0.0316 µM, first compound 3.16 µM
[6] = second compound 0.0316 µM, first compound 10 µM
[7] = second compound 0.1 µM, first compound 0.0316 µM
[8] = second compound 0.1 µM, first compound 0.1 µM
[9] = second compound 0.1 µM, first compound 0.316 µM
[10] = second compound 0.1 µM, first compound 1 µM
[11] = second compound 0.1 µM, first compound 3.16 µM
[12] = second compound 0.1 µM, first compound 10 µM
[13] = second compound 0.316 µM, first compound 0.0316 µM
[14] = second compound 0.316 µM, first compound 0.1 µM
[15] = second compound 0.316 µM, first compound 0.316 µM
[16] = second compound 0.316 µM, first compound 1 µM
[17] = second compound 0.316 µM, first compound 3.16 µM
[18] = second compound 0.316 µM, first compound 10 µM
[19] = second compound 1 µM, first compound 0.0316 µM
[20] = second compound 1 µM, first compound 0.1 µM
[21] = second compound 1 µM, first compound 0.316 µM
[22] = second compound 1 µM, first compound 1 µM
[23] = second compound 1 µM, first compound 3.16 µM
[24] = second compound 1 µM, first compound 10 µM
[25] = second compound 3.16 µM, first compound 0.0316 µM
[26] = second compound 3.16 µM, first compound 0.1 µM
[27] = second compound 3.16 µM, first compound 0.316 µM
[28] = second compound 3.16 µM, first compound 1 µM
[29] = second compound 3.16 µM, first compound 3.16 µM
[30] = second compound 3.16 µM, first compound 10 µM
[31] = second compound 10 µM, first compound 0.0316 µM
[32] = second compound 10 µM, first compound 0.1 µM
[33] = second compound 10 µM, first compound 0.316 µM
[34] = second compound 10 µM, first compound 1 µM
[35] = second compound 10 µM, first compound 3.16 µM
[36] = second compound 10 µM, first compound 10 µM

Compound: C=CC(=O)N1CCN(c2nc(=O)n(-c3c(C)ccnc3C(C)C)c3nc(-c4c(O)cccc4F)c(F)cc23)C(C)C1 (centres undefined) + CN(C)c1ccc(Nc2c3ccc(NC(=O)CCN4CCCC4)cc3nc3cc(NC(=O)CCN4CCCC4)ccc23)cc1
- IC50 (second compound 0.0316 µM): > 10 µM
- IC50 (second compound 0.1 µM): > 10 µM
- IC50 (second compound 0.316 µM): > 10 µM
- IC50 (second compound 1 µM): > 10 µM
- IC50 (second compound 3.16 µM): > 10 µM
- IC50 (second compound 10 µM): > 10 µM
- viability, T/C [1]: 107%
- viability, T/C [2]: 95.4%
- viability, T/C [3]: 94.9%
- viability, T/C [4]: 95.1%
- viability, T/C [5]: 110%
- viability, T/C [6]: 123%
- viability, T/C [7]: 108%
- viability, T/C [8]: 96.8%
- viability, T/C [9]: 103%
- viability, T/C [10]: 95.4%
- viability, T/C [11]: 98.6%
- viability, T/C [12]: 119%
- viability, T/C [13]: 95.1%
- viability, T/C [14]: 94.7%
- viability, T/C [15]: 90.6%
- viability, T/C [16]: 101%
- viability, T/C [17]: 101%
- viability, T/C [18]: 128%
- viability, T/C [19]: 97.7%
- viability, T/C [20]: 92.2%
- viability, T/C [21]: 94.8%
- viability, T/C [22]: 102%
- viability, T/C [23]: 109%
- viability, T/C [24]: 133%
- viability, T/C [25]: 98.7%
- viability, T/C [26]: 90.7%
- viability, T/C [27]: 92.3%
- viability, T/C [28]: 93.4%
- viability, T/C [29]: 103%
- viability, T/C [30]: 126%
- viability, T/C [31]: 99.9%
- viability, T/C [32]: 92.2%
- viability, T/C [33]: 99.8%
- viability, T/C [34]: 100%
- viability, T/C [35]: 108%
- viability, T/C [36]: 107%

Compound: COc1ncnc(C2CC2)c1-c1ncc2cnn(Cc3ccc(-c4nc(C(F)(F)F)cn4C(C)C)cc3)c2n1 + Cc1cnc(CNC(=O)c2c(=O)c3ccc(N4CCCN(C)CC4)nc3n3c2sc2ccccc23)cn1
- IC50 (second compound 0.0316 µM): > 10 µM
- IC50 (second compound 0.1 µM): > 10 µM
- IC50 (second compound 0.316 µM): < 0.0316 µM
- IC50 (second compound 1 µM): < 0.0316 µM
- IC50 (second compound 3.16 µM): < 0.0316 µM
- IC50 (second compound 10 µM): < 0.0316 µM
- viability, T/C [1]: 101%
- viability, T/C [2]: 110%
- viability, T/C [3]: 102%
- viability, T/C [4]: 103%
- viability, T/C [5]: 104%
- viability, T/C [6]: 111%
- viability, T/C [7]: 69.3%
- viability, T/C [8]: 73.5%
- viability, T/C [9]: 57.3%
- viability, T/C [10]: 61.4%
- viability, T/C [11]: 70.3%
- viability, T/C [12]: 61.2%
- viability, T/C [13]: 49.3%
- viability, T/C [14]: 43.6%
- viability, T/C [15]: 47.1%
- viability, T/C [16]: 49%
- viability, T/C [17]: 46.2%
- viability, T/C [18]: 47.7%
- viability, T/C [19]: 36.2%
- viability, T/C [20]: 35%
- viability, T/C [21]: 34.5%
- viability, T/C [22]: 38.5%
- viability, T/C [23]: 33.5%
- viability, T/C [24]: 33.5%
- viability, T/C [25]: 29.6%
- viability, T/C [26]: 37.2%
- viability, T/C [27]: 30.9%
- viability, T/C [28]: 33.5%
- viability, T/C [29]: 31.7%
- viability, T/C [30]: 33.9%
- viability, T/C [31]: 30%
- viability, T/C [32]: 26%
- viability, T/C [33]: 27.6%
- viability, T/C [34]: 26.4%
- viability, T/C [35]: 32.7%
- viability, T/C [36]: 31.9%
